For 18 compounds, IC50 results are on record in patent US12371428B2 (Exelixis, Inc., priority 2019, dated 2025).

The target in test [1] is Mer (phospho-Mer, MERTK-transfected 293A cells) (Homo sapiens (Human), UniProt Q12866). The test can be described thus: Mer autophosphorylation ELISA in transient transfected 293A cells (Example H). Type of test: cell-based. The settings on record: cellular activity; Mer autophosphorylation ELISA in transient transfected 293A cells. The method in brief: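 IC50 from phospho-Mer ELISA of MERTK-transfected 293A cell lysates after 1 h treatment with serially diluted compound in serum-free medium.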

The target in test [2] is Human MET (residues 956-1390) (Homo sapiens (Human), UniProt P08581). The test can be described thus: Human Met kinase assay, HTRF KinEase (Example D-2). The format is biochemical. To be noted: protocol of Example D-2 (other compounds); read-out: c-Met IC50. The method in brief:
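MET kinase domain (956-1390), 0.1 ng/well, in buffer with 5 mM MgCl2, 1 mM DTT and 1 mM MnCl2, phosphorylated a biotinylated peptide at ATP Km for 40 min at RT; 10 concentrations, 3% DMSO final. EDTA-stopped HTRF read after 60 min; IC50 from a 4-parameter logistic fit.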

Test [3] has as its target Human KDR (residues 790-1356) (Homo sapiens (Human), UniProt P35968). The test is described as follows: Human KDR kinase assay, HTRF KinEase (Example B-2). Type of test: biochemical. The settings on record: protocol of Example B-2 (other compounds). The method in brief:
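Ten compound concentrations (3% DMSO final) were pre-plated, then KDR (790-1356) with biotinylated peptide in Mg/Mn/DTT buffer was added; ATP at Km (4.0 μM) started a 40 min room-temperature reaction. Detection used Eu-TK antibody and SA-XL665 in EDTA buffer; activity normalized to DMSO and reference inhibitor, IC50 by logistic fit.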

For test [4], the target named is Met (phospho-Met, HGF-stimulated PC-3 prostate cancer cells) (Homo sapiens (Human), UniProt P08581). The test is described as follows: Met autophosphorylation ELISA in PC-3 cells (Example F). The format is cell-based. The settings on record: cellular activity; Met autophosphorylation ELISA in PC-3 cells; read-out: c-Met IC50. The method in brief: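 Compounds were tested on HGF-stimulated PC-3 cells. After 24 h culture and 3 h serum starvation, cells got compound for 1 h and 100 ng/mL HGF for 10 min, and Met tyrosine phosphorylation was measured by ELISA.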
Met (phospho-Met, HGF-stimulated PC-3 prostate cancer cells), sequence (P08581 25-1390): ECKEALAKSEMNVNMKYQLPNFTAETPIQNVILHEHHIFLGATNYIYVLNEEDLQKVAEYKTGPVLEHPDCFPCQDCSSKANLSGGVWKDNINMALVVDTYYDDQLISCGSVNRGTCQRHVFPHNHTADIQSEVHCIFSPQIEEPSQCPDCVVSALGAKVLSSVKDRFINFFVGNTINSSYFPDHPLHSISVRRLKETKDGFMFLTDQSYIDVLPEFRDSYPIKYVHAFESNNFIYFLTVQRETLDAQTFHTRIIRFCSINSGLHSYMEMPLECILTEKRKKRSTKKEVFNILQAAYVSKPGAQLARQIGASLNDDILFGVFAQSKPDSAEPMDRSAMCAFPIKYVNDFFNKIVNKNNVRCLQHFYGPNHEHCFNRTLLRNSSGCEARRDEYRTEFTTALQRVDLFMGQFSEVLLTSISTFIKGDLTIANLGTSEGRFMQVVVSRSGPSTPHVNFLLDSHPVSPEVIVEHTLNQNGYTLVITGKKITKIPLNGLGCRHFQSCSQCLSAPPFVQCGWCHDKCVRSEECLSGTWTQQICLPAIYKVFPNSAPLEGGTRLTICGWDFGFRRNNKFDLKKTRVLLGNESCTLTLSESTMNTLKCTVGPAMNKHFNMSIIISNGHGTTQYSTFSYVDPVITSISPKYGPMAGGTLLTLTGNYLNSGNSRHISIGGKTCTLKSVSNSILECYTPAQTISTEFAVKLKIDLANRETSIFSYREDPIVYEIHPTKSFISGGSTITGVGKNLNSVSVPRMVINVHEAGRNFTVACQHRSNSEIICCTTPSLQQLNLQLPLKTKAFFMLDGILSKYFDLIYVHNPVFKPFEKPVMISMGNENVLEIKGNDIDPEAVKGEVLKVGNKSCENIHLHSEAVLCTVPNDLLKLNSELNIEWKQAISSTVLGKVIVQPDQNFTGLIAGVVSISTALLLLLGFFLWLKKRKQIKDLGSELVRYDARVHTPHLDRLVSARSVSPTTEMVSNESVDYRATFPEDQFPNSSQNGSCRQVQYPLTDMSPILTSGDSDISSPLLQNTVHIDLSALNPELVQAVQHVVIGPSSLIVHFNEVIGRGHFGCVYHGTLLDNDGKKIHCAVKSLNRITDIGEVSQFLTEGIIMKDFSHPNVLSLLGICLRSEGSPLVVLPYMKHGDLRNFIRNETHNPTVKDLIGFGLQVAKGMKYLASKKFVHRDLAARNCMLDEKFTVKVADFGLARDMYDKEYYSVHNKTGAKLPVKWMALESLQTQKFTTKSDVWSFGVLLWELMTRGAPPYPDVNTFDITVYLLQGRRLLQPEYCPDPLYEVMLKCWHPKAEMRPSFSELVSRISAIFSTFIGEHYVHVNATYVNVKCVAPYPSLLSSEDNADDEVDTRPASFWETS

Human KDR (residues 790-1356), sequence (P35968 790-1356): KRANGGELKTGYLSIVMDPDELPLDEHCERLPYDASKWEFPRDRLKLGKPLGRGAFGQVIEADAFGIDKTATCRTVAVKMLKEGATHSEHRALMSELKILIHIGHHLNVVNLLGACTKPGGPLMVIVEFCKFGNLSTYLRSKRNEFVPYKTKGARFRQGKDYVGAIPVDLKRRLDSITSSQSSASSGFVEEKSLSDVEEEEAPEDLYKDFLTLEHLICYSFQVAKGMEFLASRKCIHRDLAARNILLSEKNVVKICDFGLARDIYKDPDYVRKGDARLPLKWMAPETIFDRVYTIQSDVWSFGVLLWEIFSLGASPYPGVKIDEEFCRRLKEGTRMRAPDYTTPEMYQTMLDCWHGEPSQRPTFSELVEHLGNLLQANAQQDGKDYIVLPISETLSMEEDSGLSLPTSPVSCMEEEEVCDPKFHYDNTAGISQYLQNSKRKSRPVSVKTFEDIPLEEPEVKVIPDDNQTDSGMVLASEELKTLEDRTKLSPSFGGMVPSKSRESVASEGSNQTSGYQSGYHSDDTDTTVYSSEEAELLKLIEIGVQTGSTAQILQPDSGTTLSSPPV
Mer (phospho-Mer, MERTK-transfected 293A cells), sequence (Q12866 21-999): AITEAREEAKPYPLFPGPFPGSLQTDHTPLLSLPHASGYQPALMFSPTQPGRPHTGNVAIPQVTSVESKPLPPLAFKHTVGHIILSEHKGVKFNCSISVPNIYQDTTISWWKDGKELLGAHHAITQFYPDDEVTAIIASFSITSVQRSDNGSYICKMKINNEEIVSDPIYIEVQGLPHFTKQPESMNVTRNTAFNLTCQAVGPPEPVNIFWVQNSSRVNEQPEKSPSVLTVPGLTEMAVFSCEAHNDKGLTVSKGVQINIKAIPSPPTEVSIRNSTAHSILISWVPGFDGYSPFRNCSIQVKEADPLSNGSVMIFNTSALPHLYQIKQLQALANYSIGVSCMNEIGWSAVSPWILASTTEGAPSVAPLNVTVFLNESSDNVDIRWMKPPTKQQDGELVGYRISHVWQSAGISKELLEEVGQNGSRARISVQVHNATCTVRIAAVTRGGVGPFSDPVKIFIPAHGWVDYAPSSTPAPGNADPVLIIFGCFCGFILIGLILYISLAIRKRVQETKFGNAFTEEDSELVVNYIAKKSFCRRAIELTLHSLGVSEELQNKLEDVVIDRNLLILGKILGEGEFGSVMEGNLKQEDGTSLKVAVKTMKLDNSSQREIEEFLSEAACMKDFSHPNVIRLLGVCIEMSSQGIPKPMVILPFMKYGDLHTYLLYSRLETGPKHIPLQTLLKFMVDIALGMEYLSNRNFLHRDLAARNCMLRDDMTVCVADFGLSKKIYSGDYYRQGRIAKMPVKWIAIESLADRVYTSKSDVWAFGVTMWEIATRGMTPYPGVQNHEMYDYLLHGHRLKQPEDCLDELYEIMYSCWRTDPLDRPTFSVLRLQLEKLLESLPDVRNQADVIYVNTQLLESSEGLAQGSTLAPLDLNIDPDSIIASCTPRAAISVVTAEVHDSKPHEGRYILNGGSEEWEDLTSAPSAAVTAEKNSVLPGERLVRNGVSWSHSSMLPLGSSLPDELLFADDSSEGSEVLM
Human MET (residues 956-1390), sequence (P08581 956-1390): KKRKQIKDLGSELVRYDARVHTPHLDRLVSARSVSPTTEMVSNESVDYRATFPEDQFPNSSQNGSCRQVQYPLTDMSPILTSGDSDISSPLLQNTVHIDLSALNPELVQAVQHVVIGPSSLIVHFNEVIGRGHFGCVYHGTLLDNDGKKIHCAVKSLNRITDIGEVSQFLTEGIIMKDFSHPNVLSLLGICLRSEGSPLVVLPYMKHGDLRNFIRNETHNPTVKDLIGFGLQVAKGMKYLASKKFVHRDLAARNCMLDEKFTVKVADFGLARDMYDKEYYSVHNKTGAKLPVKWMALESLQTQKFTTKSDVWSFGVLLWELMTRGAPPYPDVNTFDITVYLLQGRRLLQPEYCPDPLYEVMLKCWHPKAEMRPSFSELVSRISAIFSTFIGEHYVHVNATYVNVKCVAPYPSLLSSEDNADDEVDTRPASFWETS

`COc1cc2nccc(Oc3ccc(NC(=O)c4n[nH]c(C)c(-c5ccc(F)cc5C)c4=O)cc3F)c2nc1OC` [Compound 90, N-[4-[(6,7-Dimethoxy-1,5-naphthyridin-4-yl)oxy]-3-fluorophenyl]-5-(4-fluoro-2-methylphenyl)-6-methyl-4-oxo-1H-pyridazine-3-carboxamide]: the IC50 in test [1], in test [2], in test [3] and in test [4] was < 100 nM in each case.

Consider `COc1cc2nccc(Oc3ccc(NC(=O)c4nn(C)c(C)c(-c5ccc(F)cc5)c4=O)cc3)c2nc1OC` [Compound 91, N-[4-[(6,7-Dimethoxy-1,5-naphthyridin-4-yl)oxy]phenyl]-5-(4-fluorophenyl)-1,6-dimethyl-4-oxopyridazine-3-carboxamide], for which the concentration for half-maximal inhibition (IC50) in test [1] was < 100 nM; in test [2] it was < 100 nM; in test [3] it was 100 to 300 nM; in test [4] it was < 100 nM.

For the compound `COc1cc2nccc(Oc3ccc(NC(=O)c4nn(C)c(C)c(-c5ccc(F)cc5)c4=O)cc3F)c2nc1OC` [Compound 92, N-[4-[(6,7-Dimethoxy-1,5-naphthyridin-4-yl)oxy]-3-fluorophenyl]-5-(4-fluorophenyl)-1,6-dimethyl-4-oxopyridazine-3-carboxamide], the IC50 in test [1] is < 100 nM; in test [2] it was < 100 nM; in test [3], 100 to 300 nM; in test [4], < 100 nM.

Turning to `COc1cc2nccc(Oc3ccc(NC(=O)c4ncc(C)n(-c5ccc(F)cc5)c4=O)cc3F)c2nc1OC` [Compound 93, N-[4-[(6,7-Dimethoxy-1,5-naphthyridin-4-yl)oxy]-3-fluorophenyl]-4-(4-fluorophenyl)-5-methyl-3-oxopyrazine-2-carboxamide], the IC50 in test [1], in test [2], in test [3] and in test [4] was < 100 nM each time.

Take `COc1cnc2c(Oc3ccc(NC(=O)c4ncc(C)n(-c5ccc(F)cc5)c4=O)cc3F)ccnc2c1` [Compound 94, N-[3-Fluoro-4-[(7-methoxy-1,5-naphthyridin-4-yl)oxy]phenyl]-4-(4-fluorophenyl)-5-methyl-3-oxopyrazine-2-carboxamide]: the IC50 in test [1] is < 100 nM; in test [2] it was < 100 nM; in test [3] it was > 300 nM; in test [4], < 100 nM.

Consider `COc1cc2nccc(Oc3ccc(NC(=O)c4nc(C)c(C)n(-c5ccc(F)cc5)c4=O)cc3F)c2nc1OC` [Compound 95, N-[4-[(6,7-Dimethoxy-1,5-naphthyridin-4-yl)oxy]-3-fluorophenyl]-4-(4-fluorophenyl)-5,6-dimethyl-3-oxopyrazine-2-carboxamide], for which the IC50 in test [1] is < 100 nM; in test [2], < 100 nM; in test [3] it was 100 to 300 nM; in test [4], < 100 nM.

As for `COc1cc2nccc(Oc3ccc(NC(=O)c4ncnc(-c5ccc(F)cc5)c4O)cc3F)c2nc1OC` [Compound 96, N-[4-[(6,7-Dimethoxy-1,5-naphthyridin-4-yl)oxy]-3-fluorophenyl]-6-(4-fluorophenyl)-5-hydroxypyrimidine-4-carboxamide], the IC50 in test [1], in test [2], in test [3] and in test [4] was < 100 nM each time.

For `COc1cc2nccc(Oc3ncc(NC(=O)c4cn(-c5cnn(C)c5)cc(-c5ccc(F)cc5)c4=O)cc3F)c2cc1OC` [Compound 401, N-[6-(6,7-dimethoxyquinolin-4-yl)oxy-5-fluoropyridin-3-yl]-5-(4-fluorophenyl)-1-(1-methylpyrazol-4-yl)-4-oxopyridine-3-carboxamide], the IC50 in test [1] is < 100 nM; in test [2], < 100 nM; in test [3] it was > 300 nM; in test [4], < 100 nM.

Regarding `COc1cc2nccc(Oc3ncc(NC(=O)c4cn(-c5ccn(C)n5)cc(-c5ccc(F)cc5)c4=O)cc3F)c2cc1OC` [Compound 402, N-[6-(6,7-dimethoxyquinolin-4-yl)oxy-5-fluoropyridin-3-yl]-5-(4-fluorophenyl)-1-(1-methylpyrazol-3-yl)-4-oxopyridine-3-carboxamide], the IC50 was < 100 nM in test [1], < 100 nM in test [2], > 300 nM in test [3] and < 100 nM in test [4].

In the case of `CCOc1c(-c2ccc(F)cc2)cnc(C)c1C(=O)Nc1ccc(Oc2ccnc3cc(OC)c(OC)nc23)c(F)c1` [Compound 403, N-[4-[(6,7-dimethoxy-1,5-naphthyridin-4-yl)oxy]-3-fluorophenyl]-4-ethoxy-5-(4-fluorophenyl)-2-methylpyridine-3-carboxamide], the IC50 in test [1] is < 100 nM; in test [2], 100 to 300 nM; in test [3] it was > 300 nM; in test [4], < 100 nM.

Consider `COc1cc2nccc(Oc3ccc(NC(=O)c4c5n(cc(-c6ccc(F)cc6)c4=O)CCC5)cc3)c2nc1OC` [Compound 407, N-[4-[(6,7-dimethoxy-1,5-naphthyridin-4-yl)oxy]phenyl]-6-(4-fluorophenyl)-7-oxo-2,3-dihydro-1H-indolizine-8-carboxamide], for which the IC50 in test [1] was < 100 nM; in test [2] it was < 100 nM; in test [3], 100 to 300 nM; in test [4] it was < 100 nM.

`CNC(=O)c1cc2c(Oc3ccc(NC(=O)c4c5n(cc(-c6ccc(F)cc6)c4=O)CCC5)cc3F)ccnc2cc1OC` [Compound 408, 4-[2-fluoro-4-[[6-(4-fluorophenyl)-7-oxo-2,3-dihydro-1H-indolizine-8-carbonyl]amino]phenoxy]-7-methoxy-N-methylquinoline-6-carboxamide]: the IC50 in test [1], in test [2], in test [3] and in test [4] was < 100 nM in each case.

As to `COc1cc2nccc(Oc3ccc(NC(=O)c4c5n(cc(-c6ccc(F)cc6)c4=O)CCC5)cc3F)c2cc1OC` [Compound 409, N-[4-(6,7-dimethoxyquinolin-4-yl)oxy-3-fluorophenyl]-6-(4-fluorophenyl)-7-oxo-2,3-dihydro-1H-indolizine-8-carboxamide], the IC50 in test [1], in test [2], in test [3] and in test [4] was < 100 nM throughout.

Take `CCn1cc(C(=O)Nc2ccc(Oc3ccnc4cc(O)cnc34)c(F)c2)c(=O)c(-c2ccc(F)cc2)c1C` [Compound 410, 1-ethyl-N-[3-fluoro-4-[(7-hydroxy-1,5-naphthyridin-4-yl)oxy]phenyl]-5-(4-fluorophenyl)-6-methyl-4-oxopyridine-3-carboxamide]: the IC50 in test [1] is 100 to 300 nM; in test [2] it was < 100 nM; in test [3], > 300 nM; in test [4] it was 100 to 300 nM.

Regarding `COc1cnc2c(Oc3ccc(NC(=O)c4cn(C)c(Cl)c(-c5ccc(F)cc5)c4=O)cc3F)ccnc2c1` [Compound 411, 6-chloro-N-[3-fluoro-4-[(7-methoxy-1,5-naphthyridin-4-yl)oxy]phenyl]-5-(4-fluorophenyl)-1-methyl-4-oxopyridine-3-carboxamide], the IC50 is < 100 nM in test [1], < 100 nM in test [2], > 300 nM in test [3] and < 100 nM in test [4].

On to `COc1cc2nccc(Oc3ccc(NC(=O)c4cn(C)c(Cl)c(-c5ccc(F)cc5)c4=O)cc3F)c2nc1OC` [Compound 412, 6-chloro-N-[4-[(6,7-dimethoxy-1,5-naphthyridin-4-yl)oxy]-3-fluorophenyl]-5-(4-fluorophenyl)-1-methyl-4-oxopyridine-3-carboxamide], for which the IC50 in test [1], in test [2], in test [3] and in test [4] was < 100 nM in each case.

For the compound `COc1cc2nccc(Oc3ccc(NC(=O)c4cnc(C)c(-c5ccc(F)cc5)c4O)cc3)c2nc1OC(C)C` [Compound 413, 5-(4-fluorophenyl)-4-hydroxy-N-[4-[(7-methoxy-6-propan-2-yloxy-1,5-naphthyridin-4-yl)oxy]phenyl]-6-methylpyridine-3-carboxamide], the IC50 in test [1], in test [2], in test [3] and in test [4] was < 100 nM throughout.

In the case of `COc1cc2nccc(Oc3ccc(NC(=O)c4cnc(C)c(-c5ccc(F)cc5C)c4O)cc3)c2nc1OC(C)C` [Compound 414, 5-(4-fluoro-2-methylphenyl)-4-hydroxy-N-[4-[(7-methoxy-6-propan-2-yloxy-1,5-naphthyridin-4-yl)oxy]phenyl]-6-methylpyridine-3-carboxamide], the IC50 is < 100 nM in test [1], < 100 nM in test [2], > 300 nM in test [3] and < 100 nM in test [4].
